These results are taken from patent US20230295130A1, “COMPOUND USEFUL AS CDK7 KINASE INHIBITOR AND USE THEREOF” (TYK MEDICINES, INC., priority 2020, published 2023).

Assay [1] concerns the target T1, CDK7/Cyclin H/MAT1 kinase (Homo sapiens (Human), UniProt P50613). The assay is described as follows: Enzyme activity test, mobility shift assay (Table 3). Type of assay: biochemical. The following applies: 2 mM ATP, pre-incubated 0 and 60 minutes. Here is the method:
IC50 values of the compounds for CDK7 kinase were detected in Wuxi Biortus Biosciences Co. Ltd.
The compound powder was dissolved in 100% DMSO to prepare a 10 mM storage solution. The storage solution was further diluted to 0.5 mM as the initial concentration, and continuously diluted 3 times to obtain 10 compound solutions with different concentrations. The compound and enzyme were pre-incubated for 0 minutes and 60 minutes, respectively, using duplicate detection.
was used as a positive control, using Mobility shift say method, to detect CDK kinase (such as CDK7, CDK9, CDK12 and CDK2) activity of the compound.

Assay [2] has as its system ovarian cancer cells OVCAR3. The assay is described as follows: Cell anti-proliferation experiment, MTT (Table 4). Type of assay: cell-based, human. To be noted: incubate 3 days. The text has this:
(§1) Human breast cancer cells MDA-MB 231, MDA-MB453, ovarian cancer cells OVCAR3, colorectal cancer cells HCT-116 and lung cancer cells NCI-H209 were purchased from BNCC. DMEM medium (Bio-Channel), DMSO (dimethyl sulfoxide), MTT (thiazole blue), 0.25% EDTA-Tripsin (pancreatin digestive juice), 1×PBS (phosphate buffer, PH7.2), 96-well plate (Corning), fetal bovine serum (FBS), 10,000 U/mL penicillin-G/streptomycin, high-speed freezing centrifuge (EPPENDORF 5810R), enzyme-linked immunosorbent assay (Tecan Spark).
(§2) • A) Tumor cells were cultured to 80-90% density in DMEM (high sugar, containing 10% FBS and 100 U/mL penicillin-G/streptomycin) at 37° C., 5% CO2 and saturated humidity. • B) The culture medium was removed from the 10 cm culture dish. • C) Cells were washed with 10 ml 1×PBS. • D) 4 ml of 0.25% EDTA-Tripsin was added to an incubator to digest pancreatin for 5 minutes at 37° C. and 5% CO2, transferred to a 15 ml centrifuge tube, centrifuged for 5 minutes at 200 g, and supernatant was discarded to obtain cell precipitation. • E) The cell precipitation was resuspended with 4 ml DMEM medium, counted and adjusted to 50,000 cells/ml. • F) Cell suspension was added to a 96-well plate with a volume of 100 μL per well and cultured overnight in a 5% CO2 incubator at 37° C.
(§3) • A) Preparing the tested compound gradient dilution solution: TY 2600 1 mM, TY 2601 1 mM, TY-2648a 1 mM, TY-2648b 1 mM and TY-2650 1 mM storage solutions were prepared. Then 1.5 μl of storage solution was dissolved in 1.5 ml of DMSO-free culture solution, and then performed 3-fold continuous gradient dilution with 0.1% DMSO culture solution for a total of 9 concentrations. The concentrations of the diluted compound were as follows: • 333.33 nM, 111.11 nM, 37.03 nM, 12.35 nM, 4.15 nM, 1.37 nM, 0.46 nM, 0.15 nM • B) After full mixing, 100 μL of culture compound solution was taken to replace the culture solution in the cell culture plate, with 4 duplicated wells at each concentration; • C) The cells were transferred to incubator to incubate for 3 days.
(§4) • A) The cell culture plate was taken out and added with 5 mg/ml MTT 10 μL in the biosafety cabinet; • B) The cell culture plate was put back into the incubator and continued to incubate for 3 hours; • C) The cell culture plate was taken out to remove the culture solution, 100 μL isopropanol (containing 0.4 mM HCl, 0.1% NP-40) was added, shaking at room temperature for 30 minutes; • D) The absorbance value was measured at 570 nm on TECAN enzyme linked immunosorbent assay.

The subject of assay [3] is breast cancer cells MDA-MB453. The assay is described as follows: Cell anti-proliferation experiment, MTT (Table 4). Type of assay: cell-based, human. To be noted: incubate 3 days.
Excerpt: as §1, §2, §3, §4

Assay [4] deals with breast cancer cells MDA-MB 231. The assay is described as follows: Cell anti-proliferation experiment, MTT (Table 4). Type of assay: cell-based, human. The following applies: incubate 3 days.
Excerpt: as §1, §2, §3, §4

Assay [5] has as its system colorectal cancer cells HCT-116. The assay is described as follows: Cell anti-proliferation experiment, MTT (Table 4). Type of assay: cell-based, human. To be noted: incubate 3 days.
Excerpt: as §1, §2, §3, §4

A further assay has as its target CDK9/Cyclin Tl (Homo sapiens (Human), UniProt P50750). Briefly: Enzyme activity test, mobility shift assay (Table 1). Type of assay: biochemical. To be noted: 2 mM ATP; read-out: CDK9 kinase IC50. The method in brief:
(§5)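 Human CDK9/Cyclin T1 and CDK2/Cyclin E1 activity measured by mobility shift assay. Compounds tested as 10-point, 3-fold dilution series starting at 0.5 mM (diluted from 10 mM DMSO stock), in duplicate, with 0 min or 60 min compound–enzyme pre-incubation.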

In another assay the target is CDK2/Cyclin El (Homo sapiens (Human), UniProt P24941). Described as above. Type of assay: biochemical. The following applies: 2 mM ATP; read-out: CDK2 kinase IC50. The gist of the method: as §5
The target of assay [6] is CDK12 (aa686-1082)/Cyclin K (Homo sapiens (Human), UniProt Q9NYV4). The assay is described as above. Type of assay: biochemical. The following applies: 2 mM ATP; read-out: CDK12 kinase IC50. The method in brief: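 Mobility shift kinase assay on CDK9/Cyclin T1 and CDK12 (aa686-1082)/Cyclin K. Ten-point 3-fold dilution series started from a 0.5 mM intermediate solution in DMSO, with compound–enzyme pre-incubation of 0 or 60 min, in duplicate. Staurosporine served as positive control.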

Assay [7] relates to colorectal cancer cells WiDr. The assay is described as follows: Cell anti-proliferation experiment, MTT (Table 2). Type of assay: cell-based, human. The following applies: Homo sapiens, WiDr, 72 h, incubate 3 days.
Excerpt: (§6) Human breast cancer cells MDA-MB 231, MDA-MB453, ovarian cancer cells OVCAR3 and A2780, colorectal cancer cells HCT-116 and WiDr, and lung cancer cell Calu-6 were purchased from BNCC. DMEM medium (Bio-Channel), DMSO (dimethyl sulfoxide), MTT (thiazole blue), 0.25% EDTA-Tripsin (pancreatin digestive juice), 1×PBS (phosphate buffer, PH7.2), 96-well plate (Corning), fetal bovine serum (FBS), 10,000 U/mL penicillin-G/streptomycin, high-speed freezing centrifuge (EPPENDORF 5810R), enzyme-linked immunosorbent assay (Tecan Spark).
as §2, with “1. Cell Plating • A)” for “• A)”
(§7) Compound Dilution • A) Preparing the tested compound gradient dilution solution: the tested compounds were prepared into 10 mM and 1 mM storage solution respectively. Firstly, 1 μl and 0.5 μl of 10 mM storage solution were dissolved in 1 ml of DMSO-free culture solution, respectively, to obtain diluted compounds with concentrations of 10 and 5 μM. Then, 1.5 μl of 1 mM storage solution was dissolved in 1.5 ml of DMSO-free culture solution to obtain a dilution compound with a concentration of 1 μM, and then diluted with a 3-fold continuous gradient with […] culture solution for a total of 7 concentrations. The concentrations of all 10 diluted compounds mentioned above were as follows: • 10 μM, 5 μM, 1 μM, 333.33 nM, 111.11 nM, 37.03 nM, 12.35 nM, 4.15 nM, 1.37 nM, 0.46 nM • B) After full mixing, 100 μL of culture compound solution was taken to replace the culture solution in the cell culture plate, with 4 duplicated wells at each concentration; • C) The cells were transferred to incubator to incubate for 3 days.
(§8) 3. MTT Detection • A) The cell culture plate was taken out and added with 5 mg/ml MTT 10 μL in the biosafety cabinet; • B) The cell culture plate was put back into the incubator and continued to incubate for 3 hours; • C) The cell culture plate was taken out to remove the culture solution, 100 μL isopropanol (containing 0.4 mM HCl, 0.1% NP-40) was added, shaking at room temperature for 30 minutes; • D) The absorbance value was measured at 570 nm on TECAN enzyme linked immunosorbent assay.

Assay [8] relates to ovarian cancer cells A2780. The assay is described as follows: Cell anti-proliferation experiment, MTT (Table 2). Type of assay: cell-based, human. The following applies: Homo sapiens, A2780, 72 h, incubate 3 days.
Excerpt: as §6
as §2, with “1. Cell Plating • A)” for “• A)”
as §7, §8

Assay [9] addresses T1, CDK7/Cyclin H/MAT1 kinase. The assay is described as follows: Enzyme activity test, mobility shift assay (Table 1). The following applies: 2 mM ATP; pre-incubated 0 and 60 minutes. Type of assay: biochemical.
In assay [10] the test system is ovarian cancer cells OVCAR3. The assay is described as follows: Cell anti-proliferation experiment, MTT (Table 2). Type of assay: cell-based. To be noted: Homo sapiens, OVCAR-3, 72 h, incubate 3 days.
Excerpt: as §6
as §2, with “1. Cell Plating • A)” for “• A)”
as §7, §8

A further assay deals with lung cancer cell Calu-6. Briefly: Cell anti-proliferation experiment, MTT (Table 2). Type of assay: cell-based. The following applies: Homo sapiens, Calu-6, 72 h, incubate 3 days.
Excerpt: as §6
as §2, with “1. Cell Plating • A)” for “• A)”
as §7, §8

Assay [11] has as its system breast cancer cells MDA-MB453. Briefly: Cell anti-proliferation experiment, MTT (Table 2). Type of assay: cell-based. To be noted: Homo sapiens, MDA-MB-453, 72 h, incubate 3 days.
Excerpt: as §6
as §2, with “1. Cell Plating • A)” for “• A)”
as §7, §8

For assay [12], the system named is breast cancer cells MDA-MB 231. The assay is described as follows: Cell anti-proliferation experiment, MTT (Table 2). Type of assay: cell-based. To be noted: Homo sapiens, MDA-MB-231, 72 h, incubate 3 days.
Excerpt: as §6
as §2, with “1. Cell Plating • A)” for “• A)”
as §7, §8

The subject of assay [13] is colorectal cancer cells HCT-116. The assay is described as follows: Cell anti-proliferation experiment, MTT (Table 2). Type of assay: cell-based. The following applies: Homo sapiens, HCT-116, 72 h, incubate 3 days.
Excerpt: as §6
as §2, with “1. Cell Plating • A)” for “• A)”
as §7, §8

T1 sequence (P50613 whole entry): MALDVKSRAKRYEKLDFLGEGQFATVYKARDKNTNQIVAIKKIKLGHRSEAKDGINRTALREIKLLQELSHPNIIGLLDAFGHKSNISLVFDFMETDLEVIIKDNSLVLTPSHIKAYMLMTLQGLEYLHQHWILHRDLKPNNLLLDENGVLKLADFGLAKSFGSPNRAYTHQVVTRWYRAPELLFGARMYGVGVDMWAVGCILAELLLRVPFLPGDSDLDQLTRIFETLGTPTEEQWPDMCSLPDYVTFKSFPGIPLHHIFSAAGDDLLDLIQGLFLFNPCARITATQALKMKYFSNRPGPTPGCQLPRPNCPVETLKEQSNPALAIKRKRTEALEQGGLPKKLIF
T1 sequence (P51946 whole entry partner): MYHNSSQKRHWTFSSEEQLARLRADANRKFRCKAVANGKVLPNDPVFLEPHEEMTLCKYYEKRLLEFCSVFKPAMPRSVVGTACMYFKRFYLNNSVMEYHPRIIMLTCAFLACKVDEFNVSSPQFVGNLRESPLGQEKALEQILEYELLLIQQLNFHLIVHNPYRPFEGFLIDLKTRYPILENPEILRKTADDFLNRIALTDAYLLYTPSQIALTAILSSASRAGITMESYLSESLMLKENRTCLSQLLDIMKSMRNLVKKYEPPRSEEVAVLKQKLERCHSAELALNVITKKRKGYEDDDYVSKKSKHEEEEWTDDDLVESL
T1 sequence (P51948 whole entry partner): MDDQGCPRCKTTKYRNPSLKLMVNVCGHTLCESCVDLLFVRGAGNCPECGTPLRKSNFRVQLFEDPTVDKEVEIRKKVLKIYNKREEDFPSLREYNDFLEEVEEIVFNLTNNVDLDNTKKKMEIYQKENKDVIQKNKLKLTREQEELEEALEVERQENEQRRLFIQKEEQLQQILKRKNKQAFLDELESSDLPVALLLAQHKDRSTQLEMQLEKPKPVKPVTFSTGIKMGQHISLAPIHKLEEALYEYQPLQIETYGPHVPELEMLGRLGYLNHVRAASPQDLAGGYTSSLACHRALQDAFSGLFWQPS
CDK9/Cyclin Tl, sequence (P50750 whole entry): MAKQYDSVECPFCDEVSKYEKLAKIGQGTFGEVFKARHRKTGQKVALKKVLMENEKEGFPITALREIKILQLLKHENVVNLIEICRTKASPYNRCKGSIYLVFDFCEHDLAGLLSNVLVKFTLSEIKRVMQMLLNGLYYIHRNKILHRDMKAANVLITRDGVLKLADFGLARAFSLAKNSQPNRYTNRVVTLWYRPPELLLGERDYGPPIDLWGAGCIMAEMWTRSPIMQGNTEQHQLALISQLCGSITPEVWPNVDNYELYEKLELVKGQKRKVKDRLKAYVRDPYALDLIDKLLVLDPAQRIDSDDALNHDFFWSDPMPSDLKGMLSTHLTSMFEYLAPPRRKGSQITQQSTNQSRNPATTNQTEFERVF
CDK9/Cyclin Tl, sequence (O60563 whole entry partner): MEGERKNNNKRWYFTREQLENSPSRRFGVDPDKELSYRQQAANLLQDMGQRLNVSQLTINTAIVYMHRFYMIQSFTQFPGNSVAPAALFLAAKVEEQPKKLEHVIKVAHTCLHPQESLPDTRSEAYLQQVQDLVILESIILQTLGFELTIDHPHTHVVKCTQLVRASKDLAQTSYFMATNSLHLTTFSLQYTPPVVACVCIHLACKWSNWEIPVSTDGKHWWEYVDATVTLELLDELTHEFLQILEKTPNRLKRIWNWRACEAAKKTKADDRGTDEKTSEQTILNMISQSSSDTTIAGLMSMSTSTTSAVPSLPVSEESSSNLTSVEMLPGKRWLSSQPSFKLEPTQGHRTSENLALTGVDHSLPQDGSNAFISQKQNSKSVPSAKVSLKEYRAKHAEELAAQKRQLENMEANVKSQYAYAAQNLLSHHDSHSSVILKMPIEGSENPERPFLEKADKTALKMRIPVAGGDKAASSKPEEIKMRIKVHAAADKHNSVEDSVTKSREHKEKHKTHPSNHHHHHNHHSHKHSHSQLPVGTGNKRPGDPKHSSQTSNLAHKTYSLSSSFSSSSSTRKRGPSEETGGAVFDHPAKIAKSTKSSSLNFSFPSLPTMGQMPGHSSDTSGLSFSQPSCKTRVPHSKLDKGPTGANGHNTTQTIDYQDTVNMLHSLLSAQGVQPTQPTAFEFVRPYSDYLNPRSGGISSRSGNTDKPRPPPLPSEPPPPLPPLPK
CDK12 (aa686-1082)/Cyclin K, sequence (Q9NYV4 686-1082): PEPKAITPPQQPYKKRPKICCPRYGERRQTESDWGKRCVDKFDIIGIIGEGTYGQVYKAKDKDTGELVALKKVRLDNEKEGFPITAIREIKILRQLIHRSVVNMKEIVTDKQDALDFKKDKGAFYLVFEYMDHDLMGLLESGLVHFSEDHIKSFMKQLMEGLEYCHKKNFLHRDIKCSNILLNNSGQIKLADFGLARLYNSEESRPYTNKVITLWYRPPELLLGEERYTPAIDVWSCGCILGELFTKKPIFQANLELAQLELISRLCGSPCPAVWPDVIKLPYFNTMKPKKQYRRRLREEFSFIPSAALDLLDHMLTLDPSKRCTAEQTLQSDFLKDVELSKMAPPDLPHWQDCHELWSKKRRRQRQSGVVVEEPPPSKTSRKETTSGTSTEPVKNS
CDK12 (aa686-1082)/Cyclin K, sequence (O75909 whole entry partner, the tested form may be a part): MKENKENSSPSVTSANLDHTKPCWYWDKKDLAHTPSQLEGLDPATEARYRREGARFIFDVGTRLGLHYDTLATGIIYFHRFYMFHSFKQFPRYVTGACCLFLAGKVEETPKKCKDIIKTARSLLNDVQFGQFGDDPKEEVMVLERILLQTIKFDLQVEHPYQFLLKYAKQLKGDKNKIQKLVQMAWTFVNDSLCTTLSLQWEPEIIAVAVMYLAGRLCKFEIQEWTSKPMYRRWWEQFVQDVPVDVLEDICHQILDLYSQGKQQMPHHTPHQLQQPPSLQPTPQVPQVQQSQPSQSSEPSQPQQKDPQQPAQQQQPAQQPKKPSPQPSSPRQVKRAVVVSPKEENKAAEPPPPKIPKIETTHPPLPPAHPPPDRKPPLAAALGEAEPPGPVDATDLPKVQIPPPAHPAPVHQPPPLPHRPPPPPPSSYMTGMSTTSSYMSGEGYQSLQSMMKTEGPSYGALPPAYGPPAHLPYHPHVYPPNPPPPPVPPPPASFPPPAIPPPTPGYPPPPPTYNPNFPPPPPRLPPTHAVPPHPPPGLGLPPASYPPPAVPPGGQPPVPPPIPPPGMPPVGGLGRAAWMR

As to `CC1(C)CC[C@H](Nc2ncc(C(F)(F)F)c(-c3c[nH]c4c(P5(=O)CCCC5)nccc34)n2)CN1` [Example 14], the IC50 (usually the concentration at which inhibition is half-maximal) in assay [1] is below 0.01 µM; in assay [2] (Homo sapiens, OVCAR-3, 72 h), 10 to 500 nM; in assay [3] (Homo sapiens, MDA-MB-453, 72 h), 10 to 500 nM; in assay [4] (Homo sapiens, MDA-MB-231, 72 h), 10 to 500 nM; in assay [5] (Homo sapiens, HCT-116, 72 h), 10 to 500 nM.

`COC(=O)Nc1ccc2c(-c3nc(N[C@H]4CCC(C)(C)NC4)ncc3C(F)(F)F)c[nH]c2c1P1(=O)CCCC1` [Example 20]: the IC50 is below 0.01 µM in [1]; 10 to 500 nM in [2] (Homo sapiens, OVCAR-3, 72 h); 10 to 500 nM in assay [3] (Homo sapiens, MDA-MB-453, 72 h); 10 to 500 nM in assay [4] (Homo sapiens, MDA-MB-231, 72 h); 10 to 500 nM in [5] (Homo sapiens, HCT-116, 72 h).

For the compound `CP(C)(=O)c1c(C#N)ccc2c(-c3nc(N[C@H]4CCC(=O)NC4)ncc3C(F)(F)F)c[nH]c12` [Example 48], the IC50 in [1] was below 0.01 µM; in assay [2] (Homo sapiens, OVCAR-3, 72 h) it was 10 to 500 nM; in assay [3] (Homo sapiens, MDA-MB-453, 72 h) it was 10 to 500 nM; in assay [4] (Homo sapiens, MDA-MB-231, 72 h), 10 to 500 nM; in [5] (Homo sapiens, HCT-116, 72 h) it was 10 to 500 nM.

As for `CCOC(=O)Nc1ccc2c(-c3nc(N[C@H]4CCCNC4)ncc3C(F)(F)F)c[nH]c2c1Br` [Example T-42], the IC50 is above 0.5 µM at CDK9/Cyclin Tl; above 0.5 µM on CDK2/Cyclin El; above 0.5 µM in assay [6]; 22.2 nM in assay [7]; 12.3 nM in assay [8]; below 0.05 µM in [9]. Besides, the IC50 worked out at 98.4 nM in [10]; 110 nM in the assay on lung cancer cell Calu-6; 77.9 nM in [11]; 181 nM in assay [12]; 137 nM in [13].

Consider `CC1(C)CC[C@H](Nc2ncc(C(F)(F)F)c(-c3c[nH]c4c(P5(=O)CCCC5)c(C#N)ccc34)n2)CN1` [Example 01], for which the IC50 in assay [1] is below 0.01 µM; in [2] (Homo sapiens, OVCAR-3, 72 h) it was 10 to 500 nM; in assay [3] (Homo sapiens, MDA-MB-453, 72 h) it was 10 to 500 nM; in [4] (Homo sapiens, MDA-MB-231, 72 h) it was 10 to 500 nM; in [5] (Homo sapiens, HCT-116, 72 h), 10 to 500 nM.

As to `CC1(C)CC[C@H](Nc2ncc(C(F)(F)F)c(-n3cnc4c(P(C)(C)=O)c(C#N)ccc43)n2)CN1` [Example 31], the IC50 is below 0.01 µM in assay [1]; 10 to 500 nM in assay [2]; 10 to 500 nM in [3]; 10 to 500 nM in assay [4]; 10 to 500 nM in assay [5].
